# Experimental data taken from PubChem BioAssay (NCI).
# Values joined by “and” are separate entries in the source; they are usually repeats but may differ in a detail not shown here. Equal entries are not always repeated.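 Five concentrations, 48 hours, 96-well plates. At the GI50, growth is halved. TGI: concentration producing complete growth inhibition.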
# Legend:
# Assay in all cases: inhibition of tumour cell growth, NCI panel, 48 h
# M14 melanoma = tested on: M14 melanoma
# SR leukemia = tested on: SR leukemia
# NCI-H522 lung = tested on: NCI-H522 lung
# OVCAR-5 ovarian = tested on: OVCAR-5 ovarian
# KM20L2 colon = tested on: KM20L2 colon
# A549 NSCLC = tested on: A549 NSCLC
# SNB-19 CNS = tested on: SNB-19 CNS
# 786-0 renal = tested on: 786-0 renal
# DLD-1 colon = tested on: DLD-1 colon
# HS 578T breast = tested on: HS 578T breast
# MDA-N = tested on: MDA-N
SMILES,TGI (M14 melanoma),TGI (SR leukemia) [µM],TGI (NCI-H522 lung),TGI (OVCAR-5 ovarian),TGI (KM20L2 colon),TGI (A549 NSCLC),TGI (SNB-19 CNS),TGI (786-0 renal) [µM],TGI (DLD-1 colon),GI50 (M14 melanoma) [µM],GI50 (SR leukemia) [µM],GI50 (NCI-H522 lung) [µM],GI50 (SNB-19 CNS),GI50 (HS 578T breast) [µM],TGI (HS 578T breast),GI50 (OVCAR-5 ovarian) [µM],GI50 (A549 NSCLC) [µM],GI50 (MDA-N),TGI (MDA-N),GI50 (DLD-1 colon) [µM]
C=CCOCCCC(=O)C(=[N+]=[N-])C(=O)OC,> 100 µM,> 100,> 100 µM,> 100 µM,> 100 µM,> 100 µM,> 100 µM,> 100,> 100 µM,–,–,–,–,–,–,–,–,–,–,–
O=C1CC(N2C(=O)/C(=C/C(Cl)=C\c3ccc([N+](=O)[O-])cc3)SC2=S)C(=O)N1c1ccc(Cl)cc1 (configuration not stated),5.06 µM,14.2,4.36 µM,–,–,–,2.97 µM,–,–,2.11,0.544,1.73,1.17 µM,1.8,> 100 µM,–,–,–,–,–
COC1(OC)C[C@H](C)[C@@]23O[C@]24c2cc(O)c5c(c2N[C@H]3C#C/C=C\C#C[C@]14O)C(=O)c1ccccc1C5=O,0.0176 µM and 0.0111 µM,–,0.0664 µM and 0.0606 µM,0.169 µM and 0.111 µM,–,0.0489 µM and 0.0352 µM,0.225 µM,0.0245,–,0.00194,–,0.0088,–,0.0847,0.516 µM and 3.6 µM,0.0206,< 0.001,0.00836 µM,0.139 µM and 0.108 µM,–
O=c1c2c([nH]c3nccn13)CCCC2,> 10 µM,> 10,> 10 µM,> 10 µM,–,> 10 µM,> 10 µM,–,–,–,–,–,–,–,> 10 µM,–,–,–,–,–
Cc1cc(C)n(C(=O)C(C)Sc2nnc(SC(C)C(=O)n3nc(C)cc3C)s2)n1 (configuration not stated),> 100 µM,> 100,–,> 100 µM,–,> 100 µM,> 100 µM,> 100,–,–,–,–,–,–,> 100 µM,–,–,–,> 100 µM,–
C=C1C(C2(C)C=CC(=O)OC3(C)COC(=O)CC32)C(OC=O)C(OC(=O)C(O)C(C)CC)C2(C)C(c3ccoc3)CC(OC(C)=O)C12O (configuration not stated),> 100 µM,> 100,> 100 µM,> 100 µM,–,> 100 µM,> 100 µM,> 100,–,–,–,–,–,–,> 100 µM,–,–,–,> 100 µM,–
COc1ccc(/C=c2/[nH]c(=O)/c(=C\c3ccc(OCc4ccccc4)cn3)[nH]c2=O)cc1,> 100 µM,> 100,> 100 µM,> 100 µM,–,> 100 µM,> 100 µM,> 100,–,–,–,–,–,–,> 100 µM,–,–,–,> 100 µM,–
CN(C)CCNc1c([N+](=O)[O-])cc2c3c(cccc13)C(=O)N(CCN(C)C)C2=O,–,–,2.79 µM,4.96 µM,5.87 µM,–,8.33 µM,–,6.02 µM,–,–,–,–,–,–,–,–,–,–,–
S=C(NCCCCCCNC(=S)Nc1c2ccccc2nc2ccccc12)Nc1c2ccccc2nc2ccccc12,–,–,> 100 µM,> 100 µM,> 100 µM,> 100 µM,> 100 µM,–,> 100 µM,–,–,–,–,–,–,–,–,–,–,–
Cc1c2c(cc3c1[nH]c1ccccc13)C(c1ccc(F)cc1)=NCC2,–,–,3.85 µM,9.62 µM,5.52 µM,6.47 µM,6.94 µM,–,6.45 µM,–,–,–,–,–,–,–,–,–,–,–
O=C1CS(=O)(=O)C(c2cccc(Oc3ccccc3)c2)N1c1cccc(Cl)c1Cl (configuration not stated),> 100 µM,52,39.4 µM,> 100 µM,–,> 100 µM,> 100 µM,32.7,–,–,–,–,–,–,90 µM,–,–,–,49.7 µM,–
OC(c1ccc(-c2ccccc2)cc1)(c1ccc(-c2ccccc2)cc1)c1ccc(-c2ccccc2)cc1,> 100 µM,> 100,> 100 µM,> 100 µM,–,> 100 µM,> 100 µM,> 100,–,–,–,–,–,–,> 100 µM,–,–,–,> 100 µM,–
CCn1cc(C(=O)O)c(=O)c2cc(F)c(N3CCN(Cn4c(O)c(N=NC(=O)c5ccncc5)c5cc(Cl)ccc54)CC3)cc21,> 100 µM,31,63.6 µM,> 100 µM,–,> 100 µM,> 100 µM,> 100,–,–,–,–,–,–,> 100 µM,–,–,–,> 100 µM,–
N#CCc1[nH]nc2nc(SCc3ccccc3)nc(N3CCCCC3)c12,34.8 µM,–,37.9 µM,36 µM,–,34.5 µM,34.8 µM,31.8,–,–,–,–,–,–,39.2 µM,–,–,–,–,–
O=C1OC(c2ccccc2)=N/C1=C/c1cccs1,> 100 µM,> 100,–,> 100 µM,–,> 100 µM,> 100 µM,–,–,–,–,–,–,–,> 100 µM,–,–,–,–,–
COc1nc(C#CCCCC#N)nc(OC)n1,47.8 µM,> 100,29.4 µM,27.8 µM,–,31.9 µM,> 100 µM,41.7,–,–,–,–,–,–,> 100 µM,–,–,–,56.1 µM,–
OC1C=C2C3CN(Cc4cc5c(cc43)OCO5)[C@H]2C[C@@H]1O (some centres not stated),25 µM,> 100,> 100 µM,73.3 µM,–,> 100 µM,76.1 µM,36.3,–,–,–,–,–,–,> 100 µM,–,–,–,37.3 µM,–
O=C(NN1C(=O)/C(=C/c2ccc(Cl)cc2)N=C1c1ccccc1)c1c(Cl)c(Cl)c(Cl)c(Cl)c1-c1nc2ccccc2[nH]1,68.8 µM,27.1,83.4 µM,> 100 µM,–,> 100 µM,> 100 µM,55.9,–,–,–,–,–,–,95.3 µM,–,–,–,31.5 µM,–

SMILES,TGI (M14 melanoma),TGI (SR leukemia) [µM],TGI (NCI-H522 lung),TGI (OVCAR-5 ovarian),TGI (KM20L2 colon),TGI (A549 NSCLC),TGI (SNB-19 CNS),TGI (786-0 renal) [µM],TGI (DLD-1 colon),GI50 (M14 melanoma) [µM],GI50 (SR leukemia) [µM],GI50 (NCI-H522 lung) [µM],GI50 (SNB-19 CNS),GI50 (HS 578T breast) [µM],TGI (HS 578T breast),GI50 (OVCAR-5 ovarian) [µM],GI50 (A549 NSCLC) [µM],GI50 (MDA-N),TGI (MDA-N),GI50 (DLD-1 colon) [µM]
COc1ccc(OC)c2sc(N3C(=O)/C(=C/c4ccccc4S)N=C3c3ccccc3)nc12,> 100 µM,35.2,–,> 100 µM,–,> 100 µM,> 100 µM,> 100,–,–,–,–,–,–,> 100 µM,–,–,–,49.5 µM,–
CC(=O)OCCC[C@@H]1C(=C(C)C)CCC2[C@@]1(C)CC[C@@]1(C)C[C@](C)(CCC=C(C)C)CC[C@]21C (some centres not stated),> 100 µM,–,> 100 µM,> 100 µM,–,> 100 µM,> 100 µM,> 100,–,–,–,–,–,–,> 100 µM,–,–,–,> 100 µM,–
O=C1c2scnc2-c2nccc3c2c1nc1ccccc13,–,> 100,> 100 µM,> 24.8 µM,–,4.87 µM,–,–,–,–,–,–,–,–,> 100 µM,–,–,–,–,–
CC(=O)C1=C(O)C2(O)C(=O)c3c(c(C)c4ccc(C)c(O)c4c3O)CC2C(N)C1=O (configuration not stated),23.1 µM,4.47,> 29.5 µM,14 µM,14.7 µM,11.5 µM,23.9 µM,16.8,11.7 µM,–,–,–,–,1.99,9.48 µM,–,–,–,–,–
CCCCC1Cc2cc(OC)ccc2-c2nc3cc(OC)ccc3n21 (configuration not stated) (tested in a mixture with another compound),28.2 µM,32.1,21.1 µM,31.4 µM,–,27.9 µM,21.5 µM,27.8,–,–,–,–,–,–,25.3 µM,–,–,–,27 µM,–
Cc1c(N)nc([C@H](CC(N)=O)NC[C@H](N)C(N)=O)nc1C(=O)N[C@H](C(=O)N[C@H](C)[C@@H](O)[C@H](C)C(=O)N[C@H](C(=O)NCCc1nc(-c2nc(C(=O)NCCC[S+](C)C)cs2)cs1)[C@@H](C)O)C(OC1OC(CO)C(O)C(O)C1OC1OC(CO)C(O)C(OC(N)=O)C1O)c1cnc[nH]1 (some centres not stated),–,–,–,–,24.3 µM and 29 µM,–,23 µM and 25 µM and > 100 µM,–,23.7 µM and > 29 µM,–,–,–,2.72 µM and 2.89 µM,–,–,–,–,8.86 µM and 23.8 µM,24.4 µM and 25 µM and > 100 µM,> 29
COC1CCC(OS(C)(=O)=O)CO1 (configuration not stated),> 100 µM,> 100,> 100 µM,> 100 µM,> 100 µM,–,> 100 µM,–,–,–,–,–,–,–,–,–,–,–,–,–
O=C(O)C(Cc1ccccc1)N1C(=O)c2ccccc2C1=O (configuration not stated),> 100 µM,–,> 100 µM,> 100 µM,–,> 100 µM,> 100 µM,> 100,–,–,–,–,–,–,> 100 µM,–,–,–,> 100 µM,–
CN1CCC23c4ccccc4NC1C21CCN(C)C3Nc2ccccc21,–,–,> 375 µM,> 375 µM,> 350 µM,> 375 µM,> 375 µM,–,> 375 µM,–,–,–,–,–,–,–,–,–,–,–
C[N+]1(C)C2CCC1CC(OC(=O)C(CO)c1ccccc1)C2 (configuration not stated),> 100 µM,> 100,> 100 µM,> 100 µM,–,> 100 µM,> 100 µM,> 100,–,–,–,–,–,–,> 100 µM,–,–,–,> 100 µM,–
O=C1CCC(NC(=O)Cc2ccc(O)cc2)C(=O)N1 (configuration not stated),> 2500 µM,–,> 2500 µM,> 2500 µM,> 2500 µM,> 2500 µM,> 2500 µM,–,–,–,–,–,–,–,–,–,–,–,–,–
CN1CCN(CCCOc2ccc3ncnc(Nc4ccc(Oc5cccc(C(F)(F)F)c5)c(Cl)c4)c3c2)CC1,3.87 µM,–,–,3.46 µM,–,2.74 µM,3.8 µM,–,–,1.87,–,–,1.83 µM,1.67,4.22 µM,1.7,1.27,–,–,–
Cc1c(Cl)c(=O)oc2cc(OCC(=O)c3ccccc3)ccc12,> 100 µM,10.7,> 100 µM,> 100 µM,–,> 100 µM,> 100 µM,–,–,–,–,–,–,–,> 100 µM,–,–,–,> 100 µM,–
N=C(N)C(N=Nc1ccccc1)C(=N)N (configuration not stated),> 100 µM,–,> 100 µM,> 100 µM,–,> 100 µM,> 100 µM,> 100,–,–,–,–,–,–,> 100 µM,–,–,–,61.2 µM,–
Cc1nc(Cl)c(C)c(Cl)n1,> 100 µM,71.8,–,> 100 µM,–,> 100 µM,> 100 µM,> 100,–,–,–,–,–,–,> 100 µM,–,–,–,> 100 µM,–
CCN(CC)/C(=C\Cl)Nc1ccccn1,> 100 µM,–,> 100 µM,> 100 µM,> 100 µM,> 100 µM,> 100 µM,> 100,> 100 µM,–,–,–,–,–,–,–,–,–,–,–
CO[C@@]12C[C@@H](CNC(=O)c3cc(Br)c[nH]3)O[C@@H]1NC(=O)N2,> 100 µM,–,> 100 µM,> 100 µM,–,> 100 µM,> 100 µM,> 100,–,–,–,–,–,–,> 100 µM,–,–,–,–,–
